Laboratory results published in the supplement of paper PMC10307832.

What was measured:
Assay in all cases: relative viability (nuclei count vs DMSO), 5 days (fraction); higher = more cells survive
Halofuginone + Foretinib = compound: O=C(C[C@H]1NCCC[C@@H]1O)Cn1cnc2cc(Br)c(Cl)cc2c1=O (racemic) [Halofuginone] + COc1cc2c(Oc3ccc(NC(=O)C4(C(=O)Nc5ccc(F)cc5)CC4)cc3F)ccnc2cc1OCCCN1CCOCC1 [Foretinib] (partner 0.25 µM)
Procedure, shortened: (§1)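 Relative viability is defined as nuclei in treated wells over nuclei in vehicle wells. Duplicate plates were run and medians reported. Lung cancer cell lines in 1536-well plates were dosed by pin tool one day after seeding, with one drug or with a fixed anchor-drug dose plus five library-drug doses (not always all listed) in √10 steps, and nuclei were counted after 5 days.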

Decitabine + Phenformin = compound: Nc1ncn([C@H]2C[C@H](O)[C@@H](CO)O2)c(=O)n1 [Decitabine] + N=C(N)NC(=N)NCCc1ccccc1 [Phenformin] (partner 250 µM)
Procedure, shortened: as §1

Cediranib + Palbociclib = compound: COc1cc2c(Oc3ccc4[nH]c(C)cc4c3F)ncnc2cc1OCCCN1CCCC1 [Cediranib] + CC(=O)c1c(C)c2cnc(Nc3ccc(N4CCNCC4)cn3)nc2n(C2CCCC2)c1=O [Palbociclib] (partner 0.5 µM)
Procedure, shortened: as §1

[1] = compound: O=C(C[C@H]1NCCC[C@@H]1O)Cn1cnc2cc(Br)c(Cl)cc2c1=O (racemic) [Halofuginone] + Nc1nc2[nH]cc(CCc3ccc(C(=O)N[C@@H](CCC(=O)O)C(=O)O)cc3)c2c(=O)[nH]1 [Pemetrexed] (partner 0.2 µM)
Procedure, shortened: as §1

Row | Cell Line | relative viability (Halofuginone + Foretinib; first compound 0.001 µM) | relative viability (Halofuginone + Foretinib; first compound 0.003162 µM) | relative viability (Halofuginone + Foretinib; first compound 0.01 µM) | relative viability (Halofuginone + Foretinib; first compound 0.03162 µM) | relative viability (Halofuginone + Foretinib; first compound 0.1 µM) | relative viability (Decitabine + Phenformin; first compound 0.04 µM) | relative viability (Decitabine + Phenformin; first compound 0.1265 µM) | relative viability (Decitabine + Phenformin; first compound 0.4 µM) | relative viability (Decitabine + Phenformin; first compound 1.265 µM) | relative viability (Decitabine + Phenformin; first compound 4 µM) | relative viability (Cediranib + Palbociclib; first compound 0.04 µM) | relative viability (Cediranib + Palbociclib; first compound 0.1265 µM) | relative viability (Cediranib + Palbociclib; first compound 0.4 µM) | relative viability (Cediranib + Palbociclib; first compound 1.265 µM) | relative viability (Cediranib + Palbociclib; first compound 4 µM) | relative viability ([1]; first compound 0.001 µM) | relative viability ([1]; first compound 0.003162 µM) | relative viability ([1]; first compound 0.01 µM) | relative viability ([1]; first compound 0.03162 µM) | relative viability ([1]; first compound 0.1 µM)
1 | SK-LU-1 | 0.921 | 0.8 | 0.753 | 0.759 | 0.406 | 0.42 | 0.448 | 0.278 | 0.344 | 0.297 | 0.434 | 0.441 | 0.385 | 0.375 | 0.383 | 1.03 | 0.981 | 0.912 | 0.921 | 0.409
2 | NCI-H2023 | 1.11 | 0.636 | 0.826 | 0.288 | 0.139 | 0.31 | 0.346 | 0.222 | 0.163 | 0.161 | 0.398 | 0.344 | 0.359 | 0.413 | 0.397 | 0.297 | 0.185 | 0.213 | 0.152 | 0.0841
3 | HCC-366 | 0.952 | 0.973 | 0.876 | 1.02 | 0.514 | 0.505 | 0.528 | 0.392 | 0.244 | 0.155 | 0.451 | 0.404 | 0.366 | 0.411 | 0.262 | 0.157 | 0.167 | 0.156 | 0.135 | 0.12
4 | NCI-H1355 | 1.02 | 0.95 | 0.88 | 0.983 | 0.884 | 0.432 | 0.385 | 0.338 | 0.277 | 0.323 | 0.413 | 0.426 | 0.367 | 0.39 | 0.423 | 1.07 | 1 | 1.02 | 1.03 | 0.919
5 | NCI-H1650 | 1.33 | 1.11 | 0.964 | 0.601 | 0.177 | 0.309 | 0.386 | 0.303 | 0.246 | 0.361 | 0.421 | 0.328 | 0.304 | 0.404 | 0.334 | 0.339 | 0.388 | 0.375 | 0.325 | 0.284
6 | SW 1573 | 0.959 | 1.05 | 0.945 | 0.943 | 0.762 | 0.32 | 0.327 | 0.323 | 0.287 | 0.168 | 0.362 | 0.412 | 0.394 | 0.389 | 0.382 | 0.914 |  | 0.775 | 0.574 | 0.208
7 | NCI-H661 | 1.05 | 1.01 | 1 | 0.815 | 0.6 | 0.289 | 0.282 | 0.267 | 0.281 | 0.277 | 0.452 | 0.441 | 0.405 | 0.391 | 0.442 | 0.927 | 0.896 | 0.868 | 0.768 | 0.642
8 | LU99A | 0.8 | 0.725 | 0.817 | 0.814 | 0.768 | 0.825 | 1 | 0.757 | 0.648 | 0.627 | 0.422 |  | 0.361 | 0.408 | 0.518 | 0.218 | 0.157 | 0.16 | 0.163 | 0.181
